Data from patent US7906491B2 (Univisitair Medisch Centrum Utrecht, priority 2002, dated 2011).

Experiments:
PKAII = assay: Relative affinity for PKAII (cAMP = 1), in vitro; assay type: binding; conditions: relative to cAMP = 1
CREB = CREB phosphorylation (read-out for PKA) in NIH3T3-A14-Epac1 cells; assay type: cell-based; conditions: concentration as high as 100 μM
Method: Upper panel: NIH3T3-A14-Epac1 cells were treated for 15 min with 8-Br-cAMP, and cell lysates were analyzed for activation of Rap1 and phosphorylation of CREB. Lower panel: NIH3T3-A14-Epac1 cells were treated in duplicate for 15 min with increasing concentrations of 8-pCPT-2′-O-Me-cAMP. Cells were lysed and equal amounts of cell lysate were incubated with precoupled GST-RalGDSRBD and Rap1 was assayed by immunoblotting with Rap1 antibody.
Therefore, 8-CPT-2′-O-Me-cAMP was tested in NIH3T3-A14-Epac1 cells for the activation of Epac, using Rap1 as a read-out, and of PKA, using phosphorylation of the common PKA substrate CREB 29 as a read-out.
Antibodies against phosphorylated CREB (directed against phosphorylated Serl33) were obtained from Cell Signalling (Beverly, Mass., USA), and antibodies against K-Rev/Rap1 and polyclonal anti-HA were obtained from Santa Cruz Biotechnology (Santa Cruz, Calif., USA). The following inhibitors and stimuli were used at concentrations indicated, unless stated otherwise: RGD peptide (100 μM) and H-89 (10 μM) was obtained from Biomol Research Laboratories Inc. (Plymouth Meeting, Pa., USA). 8-Br-cAMP (1 mM) was obtained from BIOLOG Life Science Institute (Bremen, Germany). TPA (12-O-tetradecanoylphorbol-13-acetate) was obtained from Sigma (Steinheim, Germany) and was used at a concentration of 100 ng/ml. […]

Ovcar3 cells = assay: Adhesion of Ovcar3 cells to poly-L-lysine (integrin-independent); assay type: cell-based; conditions: FIG. 8
Method: Upper panel: a βl integrin-blocking peptide containing the RGD sequence present in fibronectin inhibits 8-pCPT-2′-O-Me-cAMP-induced cell adhesion. Ovcar3 cells were pre-treated for 20 minutes with RGD-peptide (100 μM) where indicated, and seeded in wells with or without 8-pCPT-2′-O-Me-cAMP. Cells were allowed to adhere for 1 h. […] Ovcar3 cells were seeded onto poly-L-lysine-coated plates. At various time points, adherent cells were quantified.
24-well plates were coated overnight with 2 μg/ml fibronectin (Sigma, St. Louis, Mo., USA) in sodium bicarbonate buffer (Sigma, St. Louis, Mo., USA). […] Cells were centrifuged, counted and resuspended at 3×10^5 cells/ml in serum-free RPMI with 0.5% BSA. […] Adherent cells were lysed in luciferase lysis buffer (15% glycerol, 25 mM Tris-phosphate pH 7.8, 1% Triton X-100, 8 mM MgCl2, 1 mM DTT) at 4° C. for 30 min and units of luciferase activity were quantified with addition of equal volume of luciferase assay buffer (25 mM Tris-phosphate pH 7.8, 8 MM MgCl2, 1 mM DTT, 1 mM ATP pH 7, 1 mM luciferin) using a luminometer (Lumat LB9507; Berthold Technologies, Belgium). […] Specific adhesion (%) was determined (counts in cells bound/counts in total input×100) and plotted either directly or relative to the basal adhesion of HA vector-transfected cells. […]

[1] = tested on: extracellular signal-regulated kinase (ERK); assay: ERK activation / inactivation in vivo (cells); assay type: cell-based
[2] = tested on: INS-1 insulin-secreting cells; conditions: cited from earlier work

## CO[C@@H]1[C@@H]2OP(=O)(O)OC[C@H]2O[C@H]1n1c(Sc2ccc(Cl)cc2)nc2c(N)ncnc21 [Compound I-007, 8-(4-chloro-phenylthio)-2′-O-methyladenosine-3′,5′-cyclic monophosphate]
PKAII
  Relative affinity CAMP = 1 PKAII: 0.003
CREB
  CREB phosphorylation: did not induce CREB phosphorylation
Ovcar3 cells
  integrin-independent adhesion to poly-L-lysine: did not increase
[1]
  activation and inactivation of ERK: affected neither the activation nor the inactivation
[2]
  exocytosis: induces exocytosis
  mobilization of Ca2+ from intracellular Ca2+ stores via Epac-mediated CICR: can induce mobilization of Ca^2+
